Assay results taken from patent US20190021323A1, “Use of Gibberellin A5 to Increase the Yield and Quality of Wine Grapes” (UTI Limited Partnership, priority 2016, published 2019).

Columns and labels:
[1] = test system: Vitis vinifera L. cv. Malbec; test: Field trial 2014-2015: GA5, GA4, GA4/7 bunch dip or spray on cv. Malbec grapevines (Example 3); type: in vivo
Method: (§1) A third trial was done in the same vineyard used for the trials outlined in Examples 1 and 2. Grapevines were selected from a clone of Vitis vinifera L. cv. Malbec, planted in 1997 on their own roots in a commercial vineyard located in Gualtallary, Mendoza, Argentina (1450 m above sea level, 69°15′37″ W and 33°23′51″ S). The vines were trained on a vertical trellis system arranged in north-south oriented rows spaced 2 m apart, with 1.20 m between plants within the row. The grapevines were maintained with no soil water restriction during the whole experiment by the use of a drip irrigation system (4 liters per plant per night), and the fruiting vines were protected with anti-hail nets (black polyethylene).
The effects of two concentrations (i.e., 10 mg/L and 50 mg/L) of three different gibberellin compositions (GA5, GA4, and a mixture of GA4 and GA7 referred to as “GA4/7”) on berry and bunch development and quality in treated cv. […] All of the treatment solutions, including the water controls, contained 0.1% v/v of the surfactant TRITON®-X and a minimal amount of 96% EtOH to dissolve the various GA5, GA4, and GA4/7 powders (the control treatments also included a minimal amount of 96% EtOH).
The effects of GA applications were assessed at two stages of berry development. The first group of test plants was treated at 60 DBV (i.e. 31 DAF) while a second group of test plants was treated at 30 DBV (i.e. 61 DAF). At each application stage, the groups of test plants receiving selected treatments were each divided into two subsets. The developing berry bunches on the first subset of plants for a selected treatment were treated by submerging into a 750-mL volume of the test solution for a period of 15 sec during late afternoon. The second subset of plants was treated with a spray application of 150 mL of test solution per each test plant. The spray applications were made in late afternoon.
For each of the two application stages, a randomized complete block design with 14 treatments and 5 blocks was used for a […]. The experimental unit consisted of one plant selected as being “typical” among 6 consecutive plants in a selected row. Each row was a replicate, i.e., a “block”. There were thus 40 experimental units (plants) utilized for each growth regulator. All the grapevines in the 5 replicate rows were pruned to 8 “fruiting” shoots and the crop load on each shoot was thinned to two bunches per shoot at the beginning of the experiment (31 DAF or 60 DBV). One shoot per experimental unit was selected, marked and used for the non-destructive measurements (shoot length, number of leaves and leaf area), while the rest of the shoots were used for berry sampling.
(§2) At harvest, the two selected and marked bunches from one fruiting shoot per experimental unit, i.e. not used for berry sampling, were collected in nylon bags and weighed. Then the number of berries per bunch was counted.
Samples of 25 berries per experimental unit were randomly collected in nylon bags (5 berries from each bunch; two top berries, two middle berries, one bottom berry; for each test vine, berries were collected from 5 bunches exposed to the west). These berry samples were taken at 132 DAF (132 DAF being the time of ripe berry harvest). The berries were kept on dry ice to prevent enzyme activity and dehydration and were taken quickly to the laboratory where berry fresh weights (FW) were determined before the berries were stored at −20° C. Then, 15 berries per experimental unit were defrosted at ambient room temperature after which, the skins were separated from fruit pulp and seeds by hand. The fruit pulp was collected in nylon bags, crushed by hand pressing and the relative concentration of sugars (°Brix) was measured in the pulp juice with a PAL-1 digital hand-held refractometer (Atago Co., Ltd., Tokyo, Japan). The °Brix was multiplied by the berries' FW to calculate sugar on a per berry basis (absolute amounts). […]

[2] = test system: Thompson seedless table grape vines; details: applied about three weeks before bloom; cited from earlier work
[3] = test system: Vitis vinifera L. cv. Malbec; test: Field trial 2012-2013: GA5 bunch dip once at 30 DBV on cv. Malbec grapevines (Example 2); type: in vivo
Method: as §1, with “second” for “third”, “trial” for “trials”, “Example 1.” for “Examples 1 and 2.”
The treatments were applied by submerging all of the fruit bunches on each vine in a treatment group in the selected aqueous solution (fruit bunches from control vines were submerged in water). All of the treatment solutions, including the water controls, contained 0.1% v/v of the surfactant TRITON®-X and a minimal amount of 95% EtOH to dissolve the GA5 powders (the control treatments also included a minimal amount of 95% EtOH). All treatments were applied once at 30 DBV (i.e. 61 DAF). Each berry bunch on a test vine was submerged in 750 mL of the selected treatment solution for 15 sec during a late afternoon time period.
A randomized complete block design with 5 treatments and 5 blocks was used during the 2012-2013 production season. The experimental unit consisted of one plant selected as being “typical” among 6 consecutive plants in a selected row. Each row was a replicate, i.e., a “block”. There were thus 5 experimental units (plants) utilized for each treatment, one for each row (block). All the grapevines in the 5 replicate rows were pruned to 8 “fruiting” shoots and the crop load on each shoot was thinned to two bunches per shoot at 40 days after flowering (DAF). One shoot per experimental unit was selected, marked and used for the non-destructive measurements (shoot length, number of leaves and leaf area), while the rest of the shoots were used for berry sampling.
(§3) Shoot length, number of leaves and midrib (main vein) length of all leaves were measured at: (i) 30 DBV just before application of the first set of treatments, and (ii) at harvest. At harvest, all of the leaves from 10 randomly selected shoots were collected in nylon bags, kept on ice to prevent dehydration, and were taken to the laboratory where the length of the leaf midribs, weights of separated leaves, and the weights of 1-cm^2 leaf discs were determined. Then, the leaf areas (LA) were calculated and, based on the weights, a linear regression model between the LA and the midrib length was generated. The correlation coefficient (r^2) was 0.91 and thus the model was used to transform the non-destructive measurements of midrib length into LA values.
as §2

[4] = test system: Vitis vinifera L. cv. Malbec; test: Field trial 2010-2011: GA5 bunch dip on cv. Malbec grapevines (Example 1); type: in vivo
Method: as §1, with “Grapevines” for “A third trial was done in the same vineyard used for the trials outlined in Examples 1 and 2. Grapevines”
The treatments were applied by submerging all of the fruit bunches on each vine in a treatment group in the selected aqueous solution (fruit bunches from control vines were submerged in water). All of the treatment solutions, including the water controls, contained 0.1% v/v of the surfactant TRITON®-X (TRITON is a registered trademark of the Dow Chemical Co., Indianapolis, Ind., USA) and a minimal amount of 95% EtOH to dissolve the GA5 powders (the control treatments also included a minimal amount of 95% EtOH). The treatments were applied three times; 56 days after flowering (DAF; i.e., 35 days before veraison—“DBV”), 70 DAF (i.e., 21 DBV), and 91 DAF (i.e., 0 DBV). The 91 DAF treatment time corresponded to veraison. Each berry bunch on a test vine was submerged in 750 mL of the selected treatment solution for 15 sec during a late afternoon time period.
A randomized complete block design with 4 treatments and 5 blocks was used during the 2010-2011 production season. The experimental unit consisted of one plant selected as being “typical” among 6 consecutive plants in a selected row. Each row was a replicate, i.e., a “block”. There were thus 5 experimental units (plants) utilized for each treatment, one for each row (block). All the grapevines in the 5 replicate rows were pruned to 8 “fruiting” shoots and the crop load on each shoot was thinned to two bunches per shoot at 40 days after flowering (DAF). One shoot per experimental unit was selected, marked and used for the non-destructive measurements (shoot length, number of leaves and leaf area), while the rest of the shoots were used for berry sampling.
as §3, with “56 DAF/35” for “30”, “132 DAF (harvest date).” for “at harvest.”, “the 132 DAF,” for “harvest,”
At 132 DAF, the two selected and marked bunches from one fruiting shoot per experimental unit, i.e. not used for berry sampling, were collected in nylon bags and weighed. Then the number of berries per bunch was counted.
Finally, in the next year's flowering and fruiting season (early 2012) the number of fruit clusters bunches per shoot were counted in order to assess GA5 treatment effects on return bloom.

[5] = 10 and 50 mg/L, submersion and spraying, 60 DBV and 30 DBV, vs controls

C=C1C[C@]23C[C@H]1CCC2[C@@]12CC[C@H](O)C(C)(C(=O)O1)C2[C@@H]3C(=O)O (stereo partly drawn) [GA4, gibberellin A4]
Harvest yield (average per bunch fresh weight), significance vs controls ([1]; 8 rate/method/stage combinations, FIG. 8A): significantly different from the controls in 5 out of 8 rates
Anthocyanin content per berry skin [1, 5]: appreciable increases
Average per bunch fresh weight [1, 5]: increased
Dry weight per individual berry [1, 5]: tended to be generally increased
Number of berries per bunch [1, 5]: increased
Sugar content per berry [1, 5]: tended to result in increased
Total polyphenol index (TPI) per berry skin [1, 5]: appreciable increases

C=C1C[C@]23C[C@@]1(O)CC[C@H]2[C@@]12C=C[C@H](O)[C@@](C)(C(=O)O1)[C@H]2[C@@H]3C(=O)O [GA3, gibberellic acid]
Berry cluster compactness [2]: reduce berry cluster compactness
Fruit set [2]: reduce fruit set

C=C1C[C@]23C[C@@]1(O)CC[C@H]2[C@@]12CC=C[C@@](C)(C(=O)O1)[C@H]2[C@@H]3C(=O)O [GA5, gibberellin A5]
Anthocyanin content per berry skin [1, 5]: tended to be generally increased
Average per bunch fresh weight [1, 5]: increased
Dry weight per individual berry [1, 5]: generally increased
Fresh weight per individual berry [1, 5]: generally increased
Number of berries per bunch [1, 5]: increased
Sugar content per berry [1, 5]: (non-significant) increased
Total polyphenol index (TPI) per berry skin [1, 5]: tended to be generally increased
Shoot length, significance vs Control ([3]; 5 mg/L, dip once at 30 DBV, FIG. 3A): statistically significantly different from the Control
Per bunch fresh weight ([3]; 20 mg/L, dip once at 30 DBV, FIG. 4A): significantly increased
Number of berries per bunch ([3]; 20 mg/L, dip once at 30 DBV, FIG. 4B): significantly increased
Grape yield per plant and per hectare ([3]; 20 mg/L, inferred from bunch weight): appreciably increased
Shoot length ([3]; all four treatments 5, 20, 50, 250 mg/L, dip once at 30 DBV, at harvest, FIG. 3A): decreased
Leaf surface area per shoot ([3]; all four treatments 5, 20, 50, 250 mg/L, dip once at 30 DBV, at harvest, FIG. 3B): decreased
Vegetative growth of shoots (shoot length, number of leaves) ([4]; 5, 50, 250 mg/L, bunch dip at 35, 21 and 0 DBV, post-56 DAF to harvest, vs controls, FIGS. 1A-1C): not significantly affected
Return bloom: number of fruit clusters (bunches) per shoot in the following season ([4]; assessed early 2012, FIG. 2C): no significant effects
Per bunch fresh weight of grape berry bunches ([4]; lower GA5 application rates, dip at 56, 70 and 91 DAF, harvested at 132 DAF, FIG. 2A): significant increases
Number of berries per bunch ([4]; lower GA5 application rates, dip at 56, 70 and 91 DAF, harvested at 132 DAF, FIG. 2B): significant increases
Leaf surface area per shoot ([4]; lower concentrations 5 mg/L, 50 mg/L, bunch dip at 35, 21 and 0 DBV, FIG. 1C): tended to reduce
